Measurements: patent publication US8883856B2, “Compositions and methods for the treatment of inflammatory diseases using topoisomerase inhibitors” (priority 2000, dated 2014)

How the values were obtained:
[1] = Encapsulation efficiency of drug in polymer microspheres; assay type: physicochemical
Description: Camptothecin (Sigma) was dissolved in a 5% (w/v) solution of poly(L-lactic acid) (2K molecular weight, Polysciences) in various ratios of drug to polymer (from 0.5:100 to 8:100 (w/w). Ten ml of each of these solutions were pipetted into 100 ml of a 2.5% (w/v) solution of poly vinyl alcohol (PVA, mol wt 13-21K Aldrich) with over head stirring at 500 rpm. After two hours stirring the PVA/microsphere suspension was poured through 90 um then 50 um sieves to collect the 50-90 um fraction of microspheres. These spheres were then washed in distilled water three times and dried under vacuum. The dried spheres were obtained in high yields (over 50% of the initial polymer was recovered as microspheres in the 50-90 um size range). […] Encapsulation efficiency was measured by dissolving microspheres in 1 ml of dichlomethane, extracting the drug into a 60/40 (v/v) acetonitrile water mixture and analysis by visible absorbance at 370 nm. The encapsulation efficiency of the drug in the polymer varied with the initial ratio of drug to polymer with high ratios resulting in a high level of encapsulation.
Plumbagin (Sigma) was dissolved in a 5% (w/v) solution of poly (L-lactic acid) (2K molecular weight, Polysciences) to give a final ratio of drug to polymer of 1:10 (w/w). Ten ml of this solution was pipetted into 100 ml of a 2.5% (w/v) solution of poly vinyl alcohol (PVA, mol wt 13-21K Aldrich) with over head stirring at 500 rpm. After two hours stirring the PVA/microsphere suspension was poured through 90 um then 50 um sieves to collect the 50-90 um fraction of microspheres. These spheres were then washed in distilled water three times and dried under vacuum. The dried spheres were obtained in high yields with over 50% of the initial polymer being recovered in microspheres in the 50-90 um size range. The microspheres were dense yellow in colour indicating high encapsulation efficiency of the drug plumbagin. The encapsulation efficiency was measured by dissolving the microspheres in 1 ml of dichlomethane, extracting the drug into a 60/40 (v/v) acetonitrile water mixture and analysis by visible absorbance at 420 nm. The encapsulation efficiency of the drug in the polymer was 80%.
(§1) Ten ml of each solution was pipetted into 100 ml of a 2.5% (w/v) solution of poly vinyl alcohol (PVA, mol wt 13-21K Aldrich) with over head stirring at 500 rpm. After two hours stirring the PVA/microsphere suspension was poured through 90 um then 50 um sieves to collect the 50-90 um fraction of microspheres. These spheres were then washed in distilled water three times and dried under vacuum. The dried spheres were obtained in high yields (over 50% of the initial polymer was recovered as microspheres in the 50-90 um size range).
as §1, with “vacuum.” for “vacuum. The dried spheres were obtained in high yields (over 50% of the initial polymer was recovered as microspheres in the 50-90 um size range).”

neutrophils = test: Cytoplasmic DNA fragmentation in neutrophils (Cell death detection ELISA); assay type: cell-based, human
Text: The inflammation associated with many forms of arthritis is thought to arise from the presence of large numbers of immune cells, such as neutrophils, in the synovial joints of humans. The extended inflammation associated with crystal induced arthritis arises from the interaction of neutrophils with crystals in the synovial joint. One reason the extended duration of the inflammation in this disease may be due to the inhibition of neutrophil apoptosis by crystals. This inhibition may result in the neutrophils remaining in the joint for extended periods. Compounds that overcome this crystal induced suppression of neutrophil apoptosis therefore allow the more rapid clearance of these cells from the joint with the appropriate abatement of inflammation. The process of apoptosis involves the endonuclease driven cleavage of DNA into fragments which may be visualized as a ladder of bands in an agarose gel electrophoresis experiment. Other assays that may be used include caspase 3 quantitation or measurements of cytoplasmic DNA concentration. […] Agents that inhibit caspase activation levels or reduce cytoplasmic DNA are pro-survival (potentially inflammatory) and agents that promote are pro-apoptotic and anti-inflammatory. The use of these methods and their role in neutrophil affected inflammation is described in detail in Tudan et al. J Rheumatol. 27 p 2463-72. 2000.
Methods: Agarose gel banding/laddering of 180 base pairs: Neutrophils were separated from fresh human blood by standard methods (dextran sedimentation and ficoll paque centrifugation) and suspended in buffer at a concentration of 1×10^6 cells/ml. The cells were then incubated with crystals of calcium pyrophosphate dihydrate (CPPD) for 1 hours at 37° C. The cells were then incubated with or without camptothecin (0.1 uM) for 4 hours at 37° C. Neutrophil aliquots (1×10^6 cells) from different conditions were resuspended in 480 μl of lysis buffer (0.6% SDS, 10 mM Tris, 1 mM EDTA (pH 7.0)) and after vigorous mixing were allowed to sit on ice for 20 min after addition of 120 μl of 5M NaCl. In caspase 3 and DNA fragmentation assays a milder detergent (Triton) was used to lyse only the plasma membrane of the cells so that cytoplasmic contents (caspase 3 or DNA fragments) could be assayed. Samples were sedimented at 14,000 rpm at 4° C. for 20 min. The pellet was dried and resuspended in phenol:chloroform. Four hundred fifty μl of the upper phase was added to a new tube, which was then charged with 950 μl of […] and held at −20° C. for 10 min. The DNA was sedimented at 14,000 rpm (4° C.) and carefully washed in 75% ethanol without disturbing the pellet. The DNA was dried at 37° C. and then resuspended in 20 μl sample buffer (50% TBE with 1 μl of 1 ng/ml RNase A (Pharmacia)). […]

[2] = Example 19 microspheres 50-90 um, drug to polymer 1:40 (beta-lapachone) or 1:100 (etoposide, doxorubicin)
[3] = polycaprolactone microspheres 50-90 um, drug to polymer 1:50

SMILES	encapsulation efficiency of the drug in the polymer [1, 2] [%]	cytoplasmic DNA fragments in neutrophils (neutrophils)	encapsulation efficiency of the drug in the polymer [1, 3] [%]	also measured
CC1(C)CCC2=C(O1)c1ccccc1C(=O)C2=O [beta-lapachone]	97			
COc1cccc2c1C(=O)c1c(O)c3c(c(O)c1C2=O)C[C@@](O)(C(=O)CO)C[C@@H]3O[C@H]1C[C@H](N)[C@H](O)[C@H](C)O1 [doxorubicin]	95	significant increase in cytoplasmic DNA		
COc1cc([C@@H]2c3cc4c(cc3[C@@H](O[C@@H]3O[C@@H]5CO[C@@H](C)O[C@H]5[C@H](O)[C@H]3O)[C@H]3COC(=O)[C@H]23)OCO4)cc(OC)c1O [etoposide]		significant increase in cytoplasmic DNA		
CC1=CC(=O)c2ccccc2C1=O [menadione]			73	
CC1=CC(=O)c2c(O)cccc2C1=O [plumbagin]			85	encapsulation efficiency of the drug in the polymer ([1]; poly(L-lactic acid) 2K microspheres 50-90 um, drug to polymer 1:10): 80%
CC[C@@]1(O)C(=O)OCc2c1cc1n(c2=O)Cc2cc3ccccc3nc2-1 [camptothecin]		increased the cytoplasmic levels of DNA fragments		
